Patent US20220257557A1, “PHARMACEUTICAL COMPOSITION FOR PREVENTING OR TREATING NEUROLOGICAL DISEASES” (GLACEUM INC., priority 2019, published 2022)

Columns and labels:
[1] = biological target: T1, rePON1 (PON1, paraoxonase 1) (Homo sapiens, UniProt P27169); assay: Prevention of inhibition of PON1 activity by oxidized linolenic acid (TBBL substrate); format: biochemical
T1 construct: purchased Thermo Corp. RP-75678
In short: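 Recombinant PON1 preincubated 30 min at room temperature with compound (30 μM) in 50 mM Tris-HCl/1 mM CaCl2, then exposed to oxidized linolenic acid for 2 h. Activity read with TBBL and DTNB at 420 nm, 37 °C, every 2 min for 1 h, expressed relative to uninhibited PON1.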

SH-SY5Y cells = assay: Intracellular ATP production after MPP+ mitochondrial damage; format: cell-based, Human; details: 1 mM MPP+ 24 h, then 0.0001-1 μM compound 24 h, FIG. 3
Description: Human neuronal SH-SY5Y cells were cultured in a 1:1 DMEM/F12 medium containing 10% FBS (fetal bovine serum) at 37° C. under 5% carbon dioxide and 95% air. The cultured cells were transferred to a 96-well cell culture plate at a density of 2*10^4 cells/well and cultured for 24 hours. Thereafter, after replacement with serum-restricted medium (1:1 DMEM/F12 medium containing 0.5% FBS), the cells were cultured for 16 hours. Then, the cultured cells were treated with 1 mM MPP+ (1-methyl-4-phenylpyridinium) and cultured for 24 hours, thus inducing mitochondrial dysfunction in the cells. […]
100 μl of the cell lysate of the culture obtained in Experimental Example 3-1 was mixed with 100 μl of luciferin-luciferase reaction buffer using an ATP bioluminescent somatic cell assay kit (Sigma-Aldrich), and the mixture was allowed to react at 20° C. for 10 minutes. Thereafter, the supernatant was obtained and the fluorescence intensity thereof was measured with an LB 9501 Lumat-Luminometer to confirm recovery from the decrease in intracellular ATP production caused by mitochondrial damage.
The fluorescence intensities of controls were measured in the same manner as the above-described method, except for using a sample to which DMSO was added (normal control) instead of MMP+ and the compound of Formula III-1 and a sample to which the compound of Formula III-1 was not added (negative control). […]

BV2 cells [2] = assay: IL-1β, IL-6 and TNF-α mRNA expression after LPS (RT-PCR); format: cell-based; details: 3 h pretreatment (Table 3 amounts), LPS 1 μg/ml 6 h
In short: (§1)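 Cells pretreated with test compounds (cytotoxicity checked by MTT), then stimulated with 1 μg/ml LPS for 6 h. IL-1β, IL-6 and TNF-α mRNA levels measured by RT-PCR.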

RAW264.7 cells [3] = assay: as above; format: cell-based; details: 3 h pretreatment (Table 3 amounts), LPS 1 μg/ml 6 h
In short: as §1

RAW264.7 cells [4] = assay: Transcription of NF-κB protein (p65, p50) into nucleus after LPS (Western blot); format: cell-based; details: 3 h pretreatment (Table 3 amounts), LPS 1 μg/ml 1 h
In short: (§2)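 Cells (5×10^5/well) cultured in DMEM with 10% FBS at 37° C, 5% CO2, pretreated with compound, then stimulated with 1 μg/ml LPS for 1 hour. Nuclear levels of p65 and p50 measured by Western blot.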

BV2 cells [5] = assay: as above; format: cell-based; details: 3 h pretreatment (Table 3 amounts), LPS 1 μg/ml 1 h
In short: as §2

T1 sequence (P27169 whole entry): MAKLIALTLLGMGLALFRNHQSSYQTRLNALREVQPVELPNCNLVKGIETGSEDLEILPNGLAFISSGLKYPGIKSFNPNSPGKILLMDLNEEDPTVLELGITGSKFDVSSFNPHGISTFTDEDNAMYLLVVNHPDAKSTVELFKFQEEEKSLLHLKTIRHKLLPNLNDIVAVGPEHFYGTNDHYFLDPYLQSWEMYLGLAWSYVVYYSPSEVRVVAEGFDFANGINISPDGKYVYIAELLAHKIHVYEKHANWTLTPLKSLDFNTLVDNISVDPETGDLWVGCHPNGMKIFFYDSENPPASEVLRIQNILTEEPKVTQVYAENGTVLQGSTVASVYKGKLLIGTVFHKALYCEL

In the case of CCOc1ccc(C2COc3c(ccc4c3CCC(C)(C)O4)C2)c(O)c1 (centres unmarked) [Formula III-1, 2-(8,8-dimethyl-2,3,4,8,9,10-hexahydropyrano[2,3-f]chromen-3-yl)-5-ethoxyphenol], the activity at 30 µM ([1]; 30 μM compound with rePON1 30 min, then oxidized linolenic acid 2 h, TBBL substrate, normal control 100, negative control 73.64) is reported as 89%, the “extent to which inhibition of rePON1 activity was prevented, compared with glabridin” value ([1]; compound 30 μM vs glabridin 30 μM, result in words) is reported as “greater” and the “inhibition of rePON1 activity by oxidized linolenic acid” value ([1]; compound 30 μM, result in words) is reported as “prevented”. For the same compound, the “decrease in ATP production caused by mitochondrial damage due to MPP+” value (SH-SY5Y cells) was “recovery”, the “mRNA expression level of IL-1β” value (BV2 cells [2]) was “concentration-dependently decreased” and the “mRNA expression level of IL-6” value (BV2 cells [2]) was “concentration-dependently decreased”. The “mRNA expression level of TNF-α” value (BV2 cells [2]) was “concentration-dependently decreased”, the “mRNA expression level of IL-1β” value (RAW264.7 cells [3]) was “concentration-dependently decreased” and the “mRNA expression level of IL-6” value (RAW264.7 cells [3]) was “concentration-dependently decreased”. For the same compound, the “mRNA expression level of TNF-α” value (RAW264.7 cells [3]) was “concentration-dependently decreased”, the “level of transcription of NF-κB protein into the nucleus, p50” value (RAW264.7 cells [4]) was “concentration-dependently decreased” and the “level of transcription of NF-κB protein into the nucleus, p65” value (RAW264.7 cells [4]) was “concentration-dependently decreased”. The “level of transcription of NF-κB protein into the nucleus, p50” value (BV2 cells [5]) was “concentration-dependently decreased” and the “level of transcription of NF-κB protein into the nucleus, p65” value (BV2 cells [5]) was “concentration-dependently decreased”.
